How the values were obtained:
Secale cereale [1] = assay: Change in alkylresorcinol homologue composition in dry shoots of etiolated Secale cereale (rye) seedlings grown from compound-treated seeds at 22 +/-2 degC assessed as C17:0 content at 46 uM by GC/EI-MS analysis (reference value: 1.35 mg/kg dry weight); format: functional
Secale cereale [2] = assay: Change in alkylresorcinol content in dry shoots of green Secale cereale (rye) seedlings grown from compound-treated seeds at 22 +/-2 degC at 46 uM by thin layer chromatography (reference value: 3.13 +/-0.07 mg/kg dry weight); format: functional
Secale cereale [3] = assay: Change in alkylresorcinol homologue composition in dry shoots of green Secale cereale (rye) seedlings grown from compound-treated seeds at 22 +/-2 degC assessed as C17:1 content at 46 uM by GC/EI-MS analysis (reference value: 0.21 mg/kg dry weight); format: functional
Secale cereale [4] = assay: Change in alkylresorcinol homologue composition in dry shoots of green Secale cereale (rye) seedlings grown from compound-treated seeds at 22 +/-2 degC assessed as C17:0 content at 46 uM by GC/EI-MS analysis (reference value: 0.93 mg/kg dry weight); format: functional
Secale cereale [5] = assay: Change in alkylresorcinol homologue composition in dry shoots of green Secale cereale (rye) seedlings grown from compound-treated seeds at 29 +/-2 degC assessed as C17:0 content at 46 uM by GC/EI-MS analysis (reference value: 0.75 mg/kg dry weight); format: functional
Secale cereale [6] = assay: Change in alkylresorcinol homologue composition in dry shoots of green Secale cereale (rye) seedlings grown from compound-treated seeds at 29 +/-2 degC assessed as C23:0 content at 46 uM by GC/EI-MS analysis (reference value: 0.08 mg/kg dry weight); format: functional
Secale cereale [7] = assay: Change in alkylresorcinol homologue composition in dry shoots of green Secale cereale (rye) seedlings grown from compound-treated seeds at 15 +/-2 degC assessed as C19:1 content at 46 uM by GC/EI-MS analysis (reference value: 0.23 mg/kg dry weight); format: functional
Secale cereale [8] = assay: Toxicity against etiolated Secale cereale (rye) seedlings assessed as dry biomass of seedling grown at 22 +/-2 degC at 46 uM measured at 5 days after compound-treated seed germination (reference value: 2.52 +/-0.05 g); format: organism-based; details: in vivo, 120 h
Secale cereale [9] = assay: Change in alkylresorcinol homologue composition in dry shoots of green Secale cereale (rye) seedlings grown from compound-treated seeds at 22 +/-2 degC assessed as C19:0 content at 46 uM by GC/EI-MS analysis (reference value: 0.56 mg/kg dry weight); format: functional
Secale cereale [10] = assay: Change in alkylresorcinol homologue composition in dry shoots of green Secale cereale (rye) seedlings grown from compound-treated seeds at 22 +/-2 degC assessed as C15:0 content at 46 uM by GC/EI-MS analysis (reference value: 0.24 mg/kg dry weight); format: functional
Secale cereale [11] = assay: Change in alkylresorcinol homologue composition in dry shoots of etiolated Secale cereale (rye) seedlings grown from compound-treated seeds at 29 +/-2 degC assessed as C21:1 content at 46 uM by GC/EI-MS analysis (reference value: 0.04 mg/kg dry weight); format: functional
Secale cereale [12] = assay: Change in alkylresorcinol homologue composition in dry shoots of etiolated Secale cereale (rye) seedlings grown from compound-treated seeds at 22 +/-2 degC assessed as C21:0 content at 46 uM by GC/EI-MS analysis (reference value: 1.49 mg/kg dry weight); format: functional
Secale cereale [13] = assay: Toxicity against etiolated Secale cereale (rye) seedlings assessed as fresh biomass of seedling grown at 29 +/-2 degC at 46 uM measured at 5 days after compound-treated seed germination (reference value: 16.03 +/-0.67 g); format: organism-based; details: in vivo, 120 h
Secale cereale [14] = assay: Change in alkylresorcinol homologue composition in dry shoots of etiolated Secale cereale (rye) seedlings grown from compound-treated seeds at 15 +/-2 degC assessed as C17:0 content at 46 uM by GC/EI-MS analysis (reference value: 3.25 mg/kg dry weight); format: functional
Secale cereale [15] = assay: Change in alkylresorcinol homologue composition in dry shoots of etiolated Secale cereale (rye) seedlings grown from compound-treated seeds at 22 +/-2 degC assessed as C15:0 content at 46 uM by GC/EI-MS analysis (reference value: 0.60 mg/kg dry weight); format: functional
Secale cereale [16] = assay: Change in alkylresorcinol content in dry shoots of green Secale cereale (rye) seedlings grown from compound-treated seeds at 15 +/-2 degC at 46 uM by thin layer chromatography (reference value: 4.15 +/-0.02 mg/kg dry weight); format: functional
Secale cereale [17] = assay: Toxicity against green Secale cereale (rye) seedlings assessed as fresh biomass of seedling grown at 15 +/-2 degC at 46 uM measured at 5 days after compound-treated seed germination (reference value: 10.70 +/-0.28 g); format: organism-based; details: in vivo, 120 h
Secale cereale [18] = assay: Change in alkylresorcinol homologue composition in dry shoots of green Secale cereale (rye) seedlings grown from compound-treated seeds at 22 +/-2 degC assessed as C19:1 content at 46 uM by GC/EI-MS analysis (reference value: 0.20 mg/kg dry weight); format: functional
Secale cereale [19] = assay: Change in alkylresorcinol homologue composition in dry shoots of green Secale cereale (rye) seedlings grown from compound-treated seeds at 29 +/-2 degC assessed as C21:0 content at 46 uM by GC/EI-MS analysis (reference value: 0.20 mg/kg dry weight); format: functional
Secale cereale [20] = assay: Change in alkylresorcinol homologue composition in dry shoots of green Secale cereale (rye) seedlings grown from compound-treated seeds at 15 +/-2 degC assessed as C25:0 content at 46 uM by GC/EI-MS analysis (reference value: 0.06 mg/kg dry weight); format: functional
Secale cereale [21] = assay: Toxicity against green Secale cereale (rye) seedlings assessed as fresh biomass of seedling grown at 22 +/-2 degC at 46 uM measured at 5 days after compound-treated seed germination (reference value: 20.76 +/-0.81 g); format: organism-based; details: in vivo, 120 h
Secale cereale [22] = assay: Change in alkylresorcinol homologue composition in dry shoots of etiolated Secale cereale (rye) seedlings grown from compound-treated seeds at 15 +/-2 degC assessed as C19:1 content at 46 uM by GC/EI-MS analysis (reference value: 0.54 mg/kg dry weight); format: functional
Secale cereale [23] = assay: Change in alkylresorcinol homologue composition in dry shoots of etiolated Secale cereale (rye) seedlings grown from compound-treated seeds at 22 +/-2 degC assessed as C19:1 content at 46 uM by GC/EI-MS analysis (reference value: 0.24 mg/kg dry weight); format: functional
Secale cereale [24] = assay: Change in alkylresorcinol homologue composition in dry shoots of etiolated Secale cereale (rye) seedlings grown from compound-treated seeds at 22 +/-2 degC assessed as C23:1 content at 46 uM by GC/EI-MS analysis (reference value: 0.04 mg/kg dry weight); format: functional
Secale cereale [25] = assay: Change in alkylresorcinol content in dry shoots of green Secale cereale (rye) seedlings grown from compound-treated seeds at 29 +/-2 degC at 46 uM by thin layer chromatography (reference value: 1.94 +/-0.02 mg/kg dry weight); format: functional
Secale cereale [26] = assay: Toxicity against green Secale cereale (rye) seedlings assessed as dry biomass of seedling grown at 22 +/-2 degC at 46 uM measured at 5 days after compound-treated seed germination (reference value: 3.28 +/-0.02 g); format: organism-based; details: in vivo, 120 h

**Q.** What does the source list for `CCSC(=O)N(CC)C1CCCCC1` [CYCLOATE]?
**A.** Activity (Secale cereale [1]): 0.83 mg/kg; Activity (Secale cereale [2]): 3.17 mg/kg; Activity (Secale cereale [3]): 0.13 mg/kg; Activity (Secale cereale [4]): 1.32 mg/kg; Activity (Secale cereale [5]): 5.42 mg/kg; Activity (Secale cereale [6]): 0.32 mg/kg; Activity (Secale cereale [7]): 0.37 mg/kg; Activity (Secale cereale [8]): 1.5 g; Activity (Secale cereale [9]): 0.87 mg/kg; Activity (Secale cereale [10]): 0.2 mg/kg; Activity (Secale cereale [11]): 0.33 mg/kg; Activity (Secale cereale [12]): 0.48 mg/kg; Activity (Secale cereale [13]): 21 g; Activity (Secale cereale [14]): 5.74 mg/kg; Activity (Secale cereale [15]): 0.1 mg/kg; Activity (Secale cereale [16]): 6.67 mg/kg; Activity (Secale cereale [17]): 4.73 g; Activity (Secale cereale [18]): 0.36 mg/kg; Activity (Secale cereale [19]): 1.34 mg/kg; Activity (Secale cereale [20]): 0.09 mg/kg; Activity (Secale cereale [21]): 10.63 g; Activity (Secale cereale [22]): 1.08 mg/kg; Activity (Secale cereale [23]): 0.21 mg/kg; Activity (Secale cereale [24]): 0.03 mg/kg; Activity (Secale cereale [25]): 13.96 mg/kg; Activity (Secale cereale [26]): 2.03 g
